Read-outs that look alike come from different tables or passages of the source.
Experiments:
[1] = target: adenosine deaminase (Homo sapiens, UniProt P00813); assay: Inhibition of adenosine deaminase (ADA), adenosine as substrate, purified enzyme; type: biochemical
Source text: The mixture of the R and S isomers of the 4,5,6-trihydro-1-(β-D-ribofuranosyl) pyrazolo [5,4-d]

[2] = tested on: human erythrocytic adenosine deaminase; details: cited from earlier work
[3] = clinical trials; cited from earlier work
[4] = Inhibition of Adenosine Deaminase by Target Compounds, adenosine as substrate, purified enzyme, read-out: Ki

adenosine deaminase, sequence (P00813 whole entry): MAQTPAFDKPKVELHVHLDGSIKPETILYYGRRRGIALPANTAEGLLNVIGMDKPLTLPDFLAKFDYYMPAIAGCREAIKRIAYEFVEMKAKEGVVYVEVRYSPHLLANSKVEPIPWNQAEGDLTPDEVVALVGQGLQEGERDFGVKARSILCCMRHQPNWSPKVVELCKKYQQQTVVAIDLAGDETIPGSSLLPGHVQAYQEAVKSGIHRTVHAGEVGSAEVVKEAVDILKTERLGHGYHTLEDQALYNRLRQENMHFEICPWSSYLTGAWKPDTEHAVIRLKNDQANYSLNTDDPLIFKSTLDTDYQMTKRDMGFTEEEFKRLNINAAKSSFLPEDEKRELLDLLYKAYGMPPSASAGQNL

For `OC[C@H]1O[C@@H](n2cnc3c2N=CNC[C@H]3O)[C@H](O)[C@@H]1O` [2, coformycin, reference compound], the Ki [1] is given as 0.00012 µM and the tight binding inhibition [2] is given as “exceedingly tight binding inhibitors”.
In the case of `OC[C@H]1O[C@@H](n2cnc3c2NC=NC[C@H]3O)C[C@@H]1O` [pentostatin, 8(R)-3-(2-deoxy-β-D-erythro-pentofuranosyl)-3,6,7,8-tetrahydroimidazo[4,6-d][1,3]diazepin-8-ol], the tight binding inhibition [2] is given as “exceedingly tight binding inhibitors” and the acute renal toxicity [3] is given as “acute renal toxicity”.
Molecule `OC[C@H]1O[C@@H](n2ncc3c2N=CNCC3O)[C@H](O)[C@@H]1O` (mixture of isomers) [(3 + 26), 4,5,6-Tihydro-1-(β-D-ribofuranosyl)pyrazolo [5,4-d]-[1,3] diazepin-4(R,S)-ol] has a Ki [1, 4] of 2 µM.
In the case of `OC[C@H]1O[C@@H](n2nnc3c2N=CNC[C@@H]3O)[C@H](O)[C@@H]1O` [37 (S), 6,7,8-Trihydro-3-β-D-ribofuranosyl-v-triazole [4,5-d] [1,3] diazepin-8(R,S)-ol], the Ki [1, 4] is reported as 85 µM.
For `OC[C@H]1O[C@@H](n2nnc3c2N=CNC[C@H]3O)[C@H](O)[C@@H]1O` [4 (R), 6,7,8-Trihydro-3-β-D-ribofuranosyl-v-triazole [4,5-d] [1,3] diazepin-8(R,S)-ol], the Ki ([1]; Preliminary estimates based on conventional kinetic analysis, adenosine as substrate, purified enzyme, read-out: Ki) was 0.002 µM, the “type of inhibition of ADA” value ([1]; adenosine as substrate, purified enzyme, listed as Compound 4) was “very tight-bindinginhibitor” and the “type of inhibition of ADA” value ([1]; adenosine as substrate, purified enzyme, listed as compound 4) was “potent tight-binding inhibitor”.
